Experimental data: ChEMBL document CHEMBL1201862, “PubChem BioAssay data set” (2004)
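1) Cells in 96-well plates. 2) Compound, 48 h, 5 concentrations. 3) Linear interpolation between surrounding doses. 4) Unreached endpoint = highest concentration. Here, GI50 denotes the concentration required for 50% inhibition of growth.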 Active and inactive are the calls of the source. Rule as the data show it: active = GI50 up to about 1.1 µM and inactive = higher.

What was measured:
Assay in all cases: NCI tumour cell line growth inhibition, 48 h
SNB-78 = system: SNB-78
LXFL 529 = system: LXFL 529
SNB-19 = system: SNB-19
TK-10 = system: TK-10
HCT-116 = system: HCT-116
EKVX = system: EKVX
U-251 = system: U-251
ACHN = system: ACHN
KM12 = system: KM12
UO-31 = system: UO-31
MOLT-4 = system: MOLT-4
COLO 205 = system: COLO 205
SR = system: SR
CCRF-CEM = system: CCRF-CEM
HCT-15 = system: HCT-15
OVCAR-4 = system: OVCAR-4
DU-145 = system: DU-145
Hs-578T = system: Hs-578T
BT-549 = system: BT-549
NCI/ADR-RES = system: NCI/ADR-RES

SMILES: COc1cc(CC2c3cc(OC)c(OC)cc3CCN2C)c(C(=O)O)cc1OC (configuration not stated)
- GI50 (SNB-78): > 100 µM (inactive)
- GI50 (LXFL 529): > 100 µM (inactive)
- GI50 (SNB-19): > 100 µM (inactive)
- GI50 (TK-10): > 100 µM (inactive)
- GI50 (HCT-116): > 100 µM (inactive)
- GI50 (EKVX): > 100 µM (inactive)
- GI50 (U-251): > 100 µM (inactive)
- GI50 (ACHN): > 100 µM (inactive)
- GI50 (KM12): > 100 µM (inactive)
- GI50 (UO-31): > 100 µM (inactive)
- GI50 (MOLT-4): > 100 µM (inactive)
- GI50 (COLO 205): > 100 µM (inactive)
- GI50 (SR): > 100 µM (inactive)
- GI50 (CCRF-CEM): > 100 µM (inactive)

SMILES: Cc1cc(=O)oc2cc3c(cc12)Oc1ccccc1O3
- GI50 (SNB-78): 53 µM (inactive)
- GI50 (LXFL 529): > 100 µM (inactive)
- GI50 (SNB-19): > 100 µM (inactive)
- GI50 (TK-10): > 100 µM (inactive)
- GI50 (HCT-116): 44.9 µM (inactive)
- GI50 (EKVX): > 10 µM (inactive)
- GI50 (U-251): 45.1 µM (inactive)
- GI50 (ACHN): > 100 µM (inactive)
- GI50 (KM12): > 100 µM (inactive)
- GI50 (UO-31): > 100 µM (inactive)
- GI50 (HCT-15): > 100 µM
- GI50 (MOLT-4): > 100 µM (inactive)
- GI50 (COLO 205): > 100 µM (inactive)
- GI50 (SR): > 100 µM (inactive)
- GI50 (CCRF-CEM): > 10 µM (inactive)
- GI50 (OVCAR-4): > 100 µM (inactive)

SMILES: O=C(CC1C(=O)c2ccccc2C1=C1C(=O)c2ccccc2C1=O)c1ccccc1 (configuration not stated)
- GI50 (SNB-78): > 100 µM (inactive)
- GI50 (LXFL 529): 85.5 µM (inactive)
- GI50 (SNB-19): > 100 µM (inactive)
- GI50 (TK-10): > 100 µM (inactive)
- GI50 (EKVX): > 100 µM (inactive)
- GI50 (U-251): > 100 µM (inactive)
- GI50 (ACHN): 80.4 µM (inactive)
- GI50 (KM12): > 100 µM (inactive)
- GI50 (UO-31): > 100 µM (inactive)
- GI50 (HCT-15): 64.4 µM
- GI50 (MOLT-4): 77.3 µM (inactive)
- GI50 (COLO 205): 37.2 µM (inactive)
- GI50 (CCRF-CEM): 32 µM (inactive)
- GI50 (OVCAR-4): 77.6 µM (inactive)

SMILES: COc1ccc2c(c1)[n+]([O-])c(C(=O)C/C(=N/OCCCc1ccccc1)C(=O)NC13CC4CC(CC(C4)C1)C3)c(C)[n+]2[O-]
- GI50 (SNB-78): > 100 µM (inactive)
- GI50 (LXFL 529): > 100 µM (inactive)
- GI50 (SNB-19): > 100 µM (inactive)
- GI50 (TK-10): > 100 µM (inactive)
- GI50 (HCT-116): > 100 µM (inactive)
- GI50 (EKVX): > 100 µM (inactive)
- GI50 (U-251): > 100 µM (inactive)
- GI50 (ACHN): > 100 µM (inactive)
- GI50 (KM12): > 100 µM (inactive)
- GI50 (UO-31): > 100 µM (inactive)
- GI50 (HCT-15): > 100 µM
- GI50 (MOLT-4): > 100 µM (inactive)
- GI50 (COLO 205): > 100 µM (inactive)
- GI50 (SR): > 100 µM (inactive)
- GI50 (CCRF-CEM): 54.8 µM (inactive)
- GI50 (OVCAR-4): > 100 µM (inactive)

SMILES: CCOC(=O)/C(=C/c1ccccc1)N(CC)CC
- GI50 (SNB-78): > 100 µM (inactive)
- GI50 (LXFL 529): > 100 µM (inactive)
- GI50 (SNB-19): > 100 µM (inactive)
- GI50 (TK-10): > 100 µM (inactive)
- GI50 (HCT-116): > 100 µM (inactive)
- GI50 (EKVX): > 100 µM (inactive)
- GI50 (U-251): > 100 µM (inactive)
- GI50 (ACHN): > 100 µM (inactive)
- GI50 (KM12): > 100 µM (inactive)
- GI50 (UO-31): > 100 µM (inactive)
- GI50 (HCT-15): > 100 µM
- GI50 (MOLT-4): > 100 µM (inactive)
- GI50 (COLO 205): > 100 µM (inactive)
- GI50 (SR): > 100 µM (inactive)
- GI50 (CCRF-CEM): 62.2 µM (inactive)
- GI50 (OVCAR-4): > 100 µM (inactive)

SMILES: O=C(O)C1CC2CC(=O)C1C2 (configuration not stated)
- GI50 (SNB-78): > 100 µM (inactive)
- GI50 (LXFL 529): > 100 µM (inactive)
- GI50 (SNB-19): > 100 µM (inactive)
- GI50 (TK-10): > 100 µM (inactive)
- GI50 (HCT-116): > 100 µM (inactive)
- GI50 (EKVX): > 100 µM (inactive)
- GI50 (U-251): > 100 µM (inactive)
- GI50 (ACHN): > 100 µM (inactive)
- GI50 (KM12): > 100 µM (inactive)
- GI50 (UO-31): > 100 µM (inactive)
- GI50 (MOLT-4): > 100 µM (inactive)
- GI50 (COLO 205): > 100 µM (inactive)
- GI50 (SR): > 100 µM (inactive)
- GI50 (CCRF-CEM): > 100 µM (inactive)
- GI50 (OVCAR-4): > 100 µM (inactive)

SMILES: Nc1ccc2c(SCC(=O)Nc3ccccc3-c3ccccc3NC(=O)CSc3c4ccccc4nc4cc(N)ccc34)c3ccccc3nc2c1
- GI50 (DU-145): 24.2 µM (inactive)
- GI50 (Hs-578T): > 59.3 µM (inactive)
- GI50 (BT-549): 42 µM (inactive)
- GI50 (SNB-78): 40.9 µM (inactive)
- GI50 (LXFL 529): 11.5 µM (inactive)
- GI50 (SNB-19): 18.9 µM (inactive)
- GI50 (TK-10): 38 µM (inactive)
- GI50 (HCT-116): 24.5 µM (inactive)
- GI50 (EKVX): 39.6 µM (inactive)
- GI50 (U-251): 22 µM (inactive)
- GI50 (ACHN): 32.8 µM (inactive)
- GI50 (KM12): 19.5 µM (inactive)
- GI50 (UO-31): 20 µM (inactive)
- GI50 (HCT-15): 31.1 µM
- GI50 (MOLT-4): 3.35 µM (inactive)
- GI50 (COLO 205): 14.2 µM (inactive)
- GI50 (SR): 4.19 µM (inactive)
- GI50 (CCRF-CEM): 2.79 µM (inactive)
- GI50 (NCI/ADR-RES): 32.6 µM (inactive)
- GI50 (OVCAR-4): 29 µM (inactive)

SMILES: N#C/C(=C\c1ccc[nH]1)C(=O)c1ccccc1
- GI50 (SNB-78): > 100 µM (inactive)
- GI50 (LXFL 529): > 100 µM (inactive)
- GI50 (SNB-19): > 100 µM (inactive)
- GI50 (TK-10): > 100 µM (inactive)
- GI50 (HCT-116): > 100 µM (inactive)
- GI50 (EKVX): > 100 µM (inactive)
- GI50 (U-251): > 100 µM (inactive)
- GI50 (ACHN): > 100 µM (inactive)
- GI50 (KM12): > 100 µM (inactive)
- GI50 (UO-31): > 100 µM (inactive)
- GI50 (HCT-15): > 100 µM
- GI50 (MOLT-4): > 100 µM (inactive)
- GI50 (COLO 205): > 100 µM (inactive)
- GI50 (SR): > 100 µM (inactive)
- GI50 (CCRF-CEM): > 100 µM (inactive)
- GI50 (OVCAR-4): > 100 µM (inactive)
